Experimental data taken from paper PMC5696560 (Bioorganic & Medicinal Chemistry Letters, 2017).
Converted amounts (≈) assume the structure as drawn.

Columns and labels:
[1] = tested on: M.tb strain H37Rv; assay: LORA: inhibition of growth of M.tb H37Rv under non-replicating conditions; assay type: cell-based; details: Mycobacterium tuberculosis
Description: The compounds were evaluated for their inhibition of growth (measured as MIC90 values in µg/mL) against M.tb (strain H37Rv) under both replicating (MABA)[16] or non-replicating (LORA)[17] conditions. […] In a search for less lipophilic analogues, we prepared and evaluated compounds where this phenyl B-ring unit was replaced with different heterocycles of varying lipophilicity (Table 1).

[2] = tested on: M.tb strain H37Rv; assay: MABA: inhibition of growth of M.tb H37Rv under aerobic (replicating) conditions; assay type: cell-based; details: for MIC90 / MIC: Mycobacterium tuberculosis, H37RV; for MIC: read-out: MIC90 MABA; for anti-M.tb activity (in words): M.tb H37Rv, comparison with 1
[3] = human, microsomes
[4] = rat, in vivo
[5] = target: CYP 3A4 (Homo sapiens, UniProt P08684); assay: Inhibition of CYP 3A4; assay type: in vitro ADME; details: 20 min exposure
[6] = in vitro; details: human, human liver microsomes
[7] = tested on: M.tb strain H37Rv; assay: MICs determined at Tibotec (slightly different protocol); assay type: cell-based; details: Mycobacterium tuberculosis, MICs determined at Tibotec (Mechelen, Belgium), read-out: MIC90 (MABA, footnote d)
Source text: Given that good activity had been reported for furan 2 (albeit in M. smegmatis),[11] we evaluated a series of both 2- and 3-furyl analogues bearing different C-unit substituents.

CYP 3A4, sequence (P08684 whole entry, species assumed): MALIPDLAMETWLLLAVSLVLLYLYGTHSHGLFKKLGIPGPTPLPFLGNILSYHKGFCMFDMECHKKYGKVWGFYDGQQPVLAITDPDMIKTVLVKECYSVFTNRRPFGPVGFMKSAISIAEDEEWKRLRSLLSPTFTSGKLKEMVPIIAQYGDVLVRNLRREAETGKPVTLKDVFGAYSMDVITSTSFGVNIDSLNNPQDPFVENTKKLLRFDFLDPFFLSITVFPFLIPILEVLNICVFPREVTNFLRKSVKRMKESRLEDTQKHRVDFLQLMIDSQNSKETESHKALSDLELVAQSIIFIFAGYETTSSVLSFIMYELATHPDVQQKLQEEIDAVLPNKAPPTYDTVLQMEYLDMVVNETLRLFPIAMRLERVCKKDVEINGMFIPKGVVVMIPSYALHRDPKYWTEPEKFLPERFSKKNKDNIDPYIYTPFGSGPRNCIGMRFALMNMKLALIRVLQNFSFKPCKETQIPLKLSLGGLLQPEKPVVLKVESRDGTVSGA

`COc1cccc([C@](O)(CCN(C)C)[C@@H](c2cc3cc(Br)ccc3nc2OC)c2cc(C)sc2C)c1OC` (racemic) [Compound 4] showed an MIC90 [1] of 0.27 µg/mL (≈ 0.45 µM), an MIC90 [2] of 0.5 µg/mL (≈ 0.834 µM) and an MIC [2] of 0.05 to 0.58 µg/mL (≈ 0.0834 to 0.967 µM).
Molecule `COc1nc2ccc(Br)cc2cc1[C@@H](c1cc(C)sc1C)[C@@](O)(CCN(C)C)c1cncc(C)c1` (racemic) [Compound 6] has an MIC90 [1] of 0.3 µg/mL (≈ 0.541 µM), an MIC90 [2] of 0.58 µg/mL (≈ 1.05 µM) and an MIC [2] of 0.05 to 0.58 µg/mL (≈ 0.0902 to 1.05 µM).
With `COc1nc2ccc(Br)cc2cc1[C@@H](c1cc(C)sc1C)[C@@](O)(CCN(C)C)c1cccc(C#N)c1` [Compound 3, 3-(1-(6-Bromo-2-methoxyquinolin-3-yl)-4-(dimethylamino)-1-(2,5-dimethylthiophen-3-yl)-2-hydroxybutan-2-yl)benzonitrile] the MIC90 [2] was 0.12 µg/mL (≈ 0.213 µM) and the MIC [2] was 0.05 to 0.58 µg/mL (≈ 0.0886 to 1.03 µM).
In the case of `COc1cccc([C@](O)(CCN(C)C)[C@@H](c2cc3cc(Br)ccc3nc2OC)c2cc(C)sc2C)n1` [Compound 5], the MIC90 [1] is reported as 0.15 µg/mL (≈ 0.263 µM), the MIC90 [2] is reported as 0.12 µg/mL (≈ 0.21 µM) and the MIC [2] is reported as 0.05 to 0.58 µg/mL (≈ 0.0876 to 1.02 µM).
For `COc1nc2ccc(C#N)cc2cc1[C@@H](c1cc(C)sc1C)[C@@](O)(CCN(C)C)c1cncc(C)c1` [Compound 7], the MIC90 [1] was 1.1 µg/mL (≈ 2.2 µM), the “anti-M.tb activity (in words)” value [2] was “less active” and the MIC90 [2] was 1.94 µg/mL (≈ 3.87 µM). For the same molecule, the MIC [2] was 0.05 to 0.58 µg/mL (≈ 0.0999 to 1.16 µM).
`COc1nc2ccc(Br)cc2cc1[C@@H](c1cc(C)sc1C)[C@@](O)(CCN(C)C)c1cccnc1OC` [Compound 8] showed an MIC90 [1] of 0.2 µg/mL (≈ 0.351 µM), an MIC90 [2] of 0.12 µg/mL (≈ 0.21 µM) and an MIC [2] of 0.05 to 0.58 µg/mL (≈ 0.0876 to 1.02 µM).
For `COc1nc2ccc(Br)cc2cc1[C@@H](c1cc(C)c(C)s1)[C@@](O)(CCN(C)C)c1cccc(F)c1` [Compound 9], the MIC90 [1] was 0.11 µg/mL (≈ 0.197 µM), the Clint [3] was 12 µL/min/mg/protein and the “F(%) oral bioavailability” value [4] was 48%. The IC50 [5] was 10 µM, the half-life [6] was 1 h and the “anti-M.tb activity (in words)” value [2] was “comparable activity to 1”. The MIC90 [2] was 0.06 µg/mL (≈ 0.108 µM) and the MIC [2] was 0.05 to 0.58 µg/mL (≈ 0.0897 to 1.04 µM).
For `COc1nc2ccc(C#N)cc2cc1[C@@H](c1cc(C)c(C)s1)[C@@](O)(CCN(C)C)c1cccc(F)c1` [Compound 10], the MIC90 [1] was 0.2 µg/mL (≈ 0.397 µM), the “anti-M.tb activity (in words)” value [2] was “equally potent” and the MIC90 [2] was 0.05 µg/mL (≈ 0.0993 µM). It also gave an MIC [2] of 0.05 to 0.58 µg/mL (≈ 0.0993 to 1.15 µM).
For `COc1nc2ccc(Br)cc2cc1C(c1ccc(C)s1)C(O)(CCN(C)C)c1cccc(F)c1` (stereo not shown) [Compound 11], the MIC90 [7] was 0.47 µg/mL (≈ 0.865 µM).
With `COc1nc2ccc(Br)cc2cc1[C@@H](c1ccc(C)s1)[C@@](O)(CCN(C)C)c1cccnc1OC` [Compound 12] the MIC90 [1] was 0.52 µg/mL (≈ 0.934 µM), the “anti-M.tb activity (in words)” value [2] was “effective inhibitors” and the MIC90 [2] was 0.22 µg/mL (≈ 0.395 µM).
For `COc1ccc([C@H](c2cc3cc(Br)ccc3nc2OC)[C@@](O)(CCN(C)C)c2cccnc2OC)s1` [Compound 13], the MIC90 [1] was 0.53 µg/mL (≈ 0.926 µM), the “anti-M.tb activity (in words)” value [2] was “effective inhibitors” and the MIC90 [2] was 0.24 µg/mL (≈ 0.419 µM).
With `COc1ccc(C(c2cc3cc(C#N)ccc3nc2OC)C(O)(CCN(C)C)c2cccc(F)c2)s1` (stereo not shown) [Compound 14] the MIC90 [7] was 0.7 µg/mL (≈ 1.38 µM).
With `COc1nc2ccc(Br)cc2cc1C(c1ccco1)C(O)(CCN(C)C)c1cccc(F)c1` (stereo not shown) [Compound 15] the MIC90 [7] was 0.74 µg/mL (≈ 1.44 µM).
For `COc1nc2ccc(C#N)cc2cc1C(c1ccco1)C(O)(CCN(C)C)c1cccc(F)c1` (stereo not shown) [Compound 16], the MIC90 [7] was 1.79 µg/mL (≈ 3.9 µM).
Molecule `COc1nc2ccc(Br)cc2cc1C(c1ccco1)C(O)(CCN(C)C)c1cccc(OC(F)(F)F)c1` (stereo not shown) [Compound 17] has an MIC90 [7] of 0.76 µg/mL (≈ 1.31 µM).
Work on `COc1cccc(C(O)(CCN(C)C)C(c2ccco2)c2cc3cc(Br)ccc3nc2OC)c1OC` (stereo not shown) [Compound 18] yielded an MIC90 [7] of 0.71 µg/mL (≈ 1.28 µM).
With `COc1nc2ccc(Br)cc2cc1C(c1ccco1)C(O)(CCN(C)C)c1cccc2c1OCO2` (stereo not shown) [Compound 19] the MIC90 [7] was 0.69 µg/mL (≈ 1.28 µM).
`COc1nc2ccc(Br)cc2cc1C(c1ccco1)C(O)(CCN(C)C)c1ccccn1` (stereo not shown) [Compound 20] gave an MIC90 [7] of 1.95 µg/mL (≈ 3.93 µM).
Molecule `COc1nc2ccc(Br)cc2cc1C(c1ccco1)C(O)(CCN(C)C)c1cccc(C#N)c1` (stereo not shown) [Compound 21] has an MIC90 [7] of 1.96 µg/mL (≈ 3.77 µM).
`COc1nc2ccc(Br)cc2cc1C(c1ccoc1)C(O)(CCN(C)C)c1cccc(F)c1` (stereo not shown) [Compound 22, 1-(6-Bromo-2-methoxyquinolin-3-yl)-4-(dimethylamino)-2-(3-fluorophenyl)-1-(furan-3-yl)butan-2-ol] showed an MIC90 [7] of 0.74 µg/mL (≈ 1.44 µM).
Molecule `COc1nc2ccc(C#N)cc2cc1C(c1ccoc1)C(O)(CCN(C)C)c1cccc(F)c1` (stereo not shown) [Compound 23] has an MIC90 [7] of 1.08 µg/mL (≈ 2.35 µM).
`COc1nc2ccc(Br)cc2cc1C(c1ccoc1)C(O)(CCN(C)C)c1cccc(F)n1` (stereo not shown) [Compound 24] gave an MIC90 [7] of 0.68 µg/mL (≈ 1.32 µM).
With `COc1nc2ccc(Br)cc2cc1C(c1ccoc1)C(O)(CCN(C)C)c1cccc(OC(F)(F)F)c1` (stereo not shown) [Compound 25] the MIC90 [7] was 0.76 µg/mL (≈ 1.31 µM).
